Assay results taken from PubChem BioAssay AID1996.
Values after ≈ are worked out from the molar mass of the structure shown.

Conditions: buffer; pH 7.4; 200.0 µM

| SMILES | solubility kinetic |
| --- | --- |
| Cc1cccc2c(N=O)c(O)[nH]c12 | > 26.4 µg/mL |
| COc1ccccc1OCC(=O)Nc1sc2c(c1C(N)=O)CCC2 | 4.6 µg/mL (≈ 13.3 µM) |
| CCc1ccccc1NC(=O)c1ccc2c(c1)CCN2S(C)(=O)=O | 0.8 µg/mL (≈ 2.32 µM) |
| CCOC(=O)c1ccc(N2C(=O)c3cccc4c(C(=O)O)ccc(c34)C2=O)cc1 | 25 µg/mL (≈ 64.2 µM) |
| CC1=C(C)CC(C(=O)Nc2nc(C)cs2)C(C(=O)O)C1 (stereo not given) | > 44.2 µg/mL |
| COc1ccc(OC)c(Nc2ncnc3sccc23)c1 | 42.2 µg/mL (≈ 147 µM) |
| O=C(OCc1cc(=O)n2ccsc2n1)c1ccc(O)cc1O | 11.1 µg/mL (≈ 34.9 µM) |
| O=[N+]([O-])c1ccc(NCCc2ccccc2)c(Br)c1 | 0.7 µg/mL (≈ 2.18 µM) |
| COCCCNC(=O)c1cn(C)c(=O)c2c1c1ccccc1n2C | 19.8 µg/mL (≈ 60.5 µM) |
| N#C/C(=C\c1ccccc1OCC(=O)O)c1nc2ccccc2[nH]1 | > 47.9 µg/mL |
| Cn1cccc1C(=O)NC(=O)COC(=O)c1ccc(S(C)(=O)=O)cc1 | 8.7 µg/mL (≈ 23.9 µM) |
| O=C(CCNC(=O)c1ccccc1Cl)OCC(=O)c1ccccc1 | > 51.9 µg/mL |
| O=C(Nc1ccc2oc(-c3ccncc3)nc2c1)c1ccccc1 | < 0.2 µg/mL |
| COc1ccc(CCC(C)NCc2ccccc2OC)cc1 (stereo not given) | 32 µg/mL (≈ 107 µM) |
| COc1ccccc1Nc1c2c(nc3ccc(N)cc13)CCCC2 | 47.2 µg/mL (≈ 148 µM) |
| CC(C)(C)NC(=O)C(OC(=O)c1ccco1)c1ccccc1F (stereo not given) | > 47.9 µg/mL |
| NC(=O)NC(CC(=O)N1CCc2ccccc2C1)c1ccc(Cl)cc1 (stereo not given) | 49.9 µg/mL (≈ 139 µM) |
| Cc1ccc(S(=O)(=O)/N=C(/Nc2cccc(O)c2)c2ccccc2)cc1 | > 55 µg/mL |
| COc1ccc(CNC(=O)c2cc(=O)c3cc(C)ccc3o2)cc1 | < 0.7 µg/mL |
| Cc1nc2sc(C(=O)Nc3ccccc3)c(N)c2c(C)c1[N+](=O)[O-] | 0.8 µg/mL (≈ 2.34 µM) |
| O=C(NCCc1ccccc1)C1CC(=O)N(C2CCCC2)C1 (stereo not given) | > 45.1 µg/mL |
| CN(C)c1ccc(S(=O)(=O)N2CCCCC2)cc1NC(=O)C1=COCCO1 | 12 µg/mL (≈ 30.3 µM) |
| O=C(c1cccc([N+](=O)[O-])c1)N1CCc2ccccc21 | 2.1 µg/mL (≈ 7.83 µM) |
| CC(NC(=O)/C(C#N)=C/c1ccc(C(=O)O)cc1)c1ccccc1 (stereo not given) | > 48.1 µg/mL |

| SMILES | solubility kinetic |
| --- | --- |
| O=C(OCc1cncs1)c1ccccc1Cl | > 38.1 µg/mL |
| COc1ccc(NS(=O)(=O)c2ccc(C(=O)N3CCC(C)CC3)cc2)cc1 | > 58.3 µg/mL |
| COC(=O)c1cc(Br)c(N)cc1OC | > 39 µg/mL |
| O=C(Nc1ccc2ccccc2n1)c1ccccc1Cl | 1.1 µg/mL (≈ 3.89 µM) |
| COC(=O)c1sc(NC(=O)c2c(F)cccc2F)c(C#N)c1C | 7.2 µg/mL (≈ 21.4 µM) |
| COc1ccccc1NC(=O)/C(C#N)=C/c1cccn1C | 0.6 µg/mL (≈ 2.13 µM) |
| O=C(NCCc1ccc(Cl)cc1)C12CC3CC(CC(O)(C3)C1)C2 | 46.9 µg/mL (≈ 140 µM) |
| Nc1nccc(/C=C/c2ccc(Cl)cc2)n1 | 3.2 µg/mL (≈ 13.8 µM) |
| COc1cc(CNCCNC(=O)c2cccs2)cc(OC)c1OC | 44.1 µg/mL (≈ 126 µM) |
| Nc1nc2c(Cl)cc(Cl)cc2s1 | 7.4 µg/mL (≈ 33.8 µM) |
| C=CCn1c(SCC(=O)C23CC4CC(CC(C4)C2)C3)nc(O)cc1=O | > 54.1 µg/mL |
| Cc1cccc2c3c([nH]c12)C(=O)CC(C)(C)S3 | < 0.5 µg/mL |
| NC(=O)c1ccsc1NC(=O)COC(=O)c1cnccn1 | > 45.9 µg/mL |
| Cc1ccc(NC(=O)Cc2ccsc2)cc1S(=O)(=O)N1CCOCC1 | > 57.1 µg/mL |
| O=C(Nc1nccs1)C1CCCN1/C=C/C(=O)C(F)(F)F (stereo not given) | 46.1 µg/mL (≈ 144 µM) |
| CN(C(=O)COc1ccc(Br)cc1Cl)C1CCCCC1 | 19.8 µg/mL (≈ 54.9 µM) |
| COc1ccc(Nc2nccc(-c3ccc([N+](=O)[O-])cc3)n2)cc1 | 0.4 µg/mL (≈ 1.24 µM) |
| Cn1cccc1C(=O)OCC(=O)NCc1ccc2c(c1)OCO2 | > 47.4 µg/mL |
| COc1cc2ncnc(NCc3ccco3)c2cc1OC | 38.9 µg/mL (≈ 136 µM) |
| CCCSC1C(C)=C(C)C(=O)N1Cc1ccccc1 (stereo not given) | 35.5 µg/mL (≈ 129 µM) |
| O=C(NCCN1CCOCC1)Nc1ccc(F)cc1 | > 40.1 µg/mL |
| c1ccc(OCCCn2ccnc2)cc1 | 25.1 µg/mL (≈ 124 µM) |
| Cc1c(C(=O)NCc2ccco2)oc2c(Cl)cccc12 | 2.4 µg/mL (≈ 8.28 µM) |
| N#Cc1ccc(NC(=O)CN2CCCCCC2)cc1Cl | 26.4 µg/mL (≈ 90.5 µM) |

| SMILES | solubility kinetic |
| --- | --- |
| O=[N+]([O-])c1cc2c(cc1C=Nc1ccccc1)OCO2 | 38.1 µg/mL (≈ 141 µM) |
| O=C(Cc1c(Cl)cccc1Cl)OCC(=O)N1CCOCC1 | > 49.8 µg/mL |
| Fc1ccccc1-n1cc(-c2ccccc2)[nH]c1=S | 6.2 µg/mL (≈ 22.9 µM) |
| O=C(NCc1cccnc1)c1cccs1 | > 32.7 µg/mL |
| Cc1nn(C)c(Sc2ccccn2)c1[N+](=O)[O-] | > 37.5 µg/mL |
| O=C1CC(C(=O)N2CCN(c3ccccc3)CC2)CN1Cc1ccccc1 (stereo not given) | > 54.5 µg/mL |
| Cc1ccc(/C=C/C(=O)NCCc2ccccc2)o1 | 33.9 µg/mL (≈ 133 µM) |
| COc1ccc2[nH]c3c(c2c1)CCNC3C.Cl (stereo not given) | 30.1 µg/mL |
| O=C(COC(=O)/C=C/c1cccs1)Nc1ccc(F)cc1 | 8.4 µg/mL (≈ 27.5 µM) |
| O=S(=O)(Nc1cccc(S(=O)(=O)N2CCCC2)c1)c1ccc(Cl)cc1 | > 60.1 µg/mL |
| CSC1=C(C#N)C(=O)NC(c2ccc(Cl)cc2)S1 (stereo not given) | 11.9 µg/mL (≈ 40.1 µM) |
| O=C1N=C(N2CCCC2)S/C1=C\C=C\c1ccccc1 | 10.2 µg/mL (≈ 35.9 µM) |
| COC(=O)c1ccccc1C(=O)N(c1ccccc1)c1ccccc1 | 44.4 µg/mL (≈ 134 µM) |
| CCC(C)c1ccc(NC(=S)NC(C)C2CCCO2)cc1 (stereo not given) | 31.2 µg/mL (≈ 102 µM) |
| Cc1ccc(C2=NN(CC(=O)NCCN(C)C)C(=O)CC2)cc1 | > 47.5 µg/mL |
| Cc1ccc(C(=O)N=c2sccn2C)o1 | 32.9 µg/mL (≈ 148 µM) |
| NS(=O)(=O)c1ccc(CCNC(=O)c2ccc(Cl)c(S(=O)(=O)NCc3ccco3)c2)cc1 | > 74.7 µg/mL |
| O=C(Nc1ccc2c(c1)Cc1ccccc1-2)c1cccnc1 | 1.4 µg/mL (≈ 4.89 µM) |
| C=CCn1cccc(C(=O)Nc2ccc(SC)cc2)c1=O | 38.5 µg/mL (≈ 128 µM) |
| S=C(Nc1ccc(Br)cc1)Nc1ccc2c(c1)OCCO2 | 1.5 µg/mL (≈ 4.11 µM) |
| Cc1ccc(NC(=O)N2CCC(c3ccccc3)C2)cc1C (stereo not given) | 2.6 µg/mL (≈ 8.83 µM) |
| CCc1cc(S(N)(=O)=O)cc(CC)c1NC(C)=O | 38.4 µg/mL (≈ 142 µM) |
| O=C(COC(=O)c1cccc(Cl)c1)NCc1ccccc1 | 4.6 µg/mL (≈ 15.1 µM) |
| COc1ccccc1N(Cc1ccccc1)S(=O)(=O)c1cccc(C(=O)N2CCCCC2)c1 | 11.3 µg/mL (≈ 24.3 µM) |

| SMILES | solubility kinetic |
| --- | --- |
| O=C(NCc1cccnc1)c1cc(C(=O)C2CC2)c[nH]1 | > 40.4 µg/mL |
| CN(C)C(=O)CSc1ncccc1-c1nc2ccccc2[nH]1 | 42.6 µg/mL (≈ 136 µM) |
| Cc1c(NC(=O)c2ccc3nsnc3c2)cccc1[N+](=O)[O-] | 2.3 µg/mL (≈ 7.32 µM) |
| Cc1ccc(N2CCN(S(=O)(=O)N3CCCCC3)CC2)c(C)c1 | 3.8 µg/mL (≈ 11.3 µM) |
| CN1CCN(C(=O)/C(C#N)=C/c2ccc(F)cc2)CC1.Cl | > 46.5 µg/mL |
| O=C(CSc1nnc(NC(=O)c2ccccc2F)s1)NC1CC1 | > 52.9 µg/mL |
| Cc1cccc(C)c1NC(=O)NC1(C(=O)N2CCCCC2)CCCCC1 | 45.6 µg/mL (≈ 128 µM) |
| Cc1ccc(S(=O)(=O)N2CCCN(C)CC2)cc1.Cl | > 45.7 µg/mL |
| Cc1nc(Nc2ccccc2F)c2oc3ccccc3c2n1 | 0.3 µg/mL (≈ 1.02 µM) |
| Cc1cccc(-n2c(-c3ccccc3)nc3ccccc3c2=O)n1 | > 47 µg/mL |
| Cc1snc(SCc2ccc(F)cc2)c1C#N | 3 µg/mL (≈ 11.3 µM) |
| OCC[N+]12CCC(CC1)C(C(O)(c1ccccc1)c1ccccc1)C2 (stereo not given) | > 50.8 µg/mL |
| CSCC(=O)N1CCC(CCC(=O)NC2CC2)CC1 | > 42.7 µg/mL |
| CNC(=S)N(CCc1c(C)[nH]c2ccccc12)Cc1ccco1 | 1.5 µg/mL (≈ 4.58 µM) |
| Cc1ccc(-c2nc(N3CCN(C)CC3)c3ccccc3n2)cc1.Cl | 49 µg/mL |
| O=C(O)C(Cc1ccccc1)N1C(=O)CCC1=O (stereo not given) | > 37.1 µg/mL |
| CNC(=O)C(=O)Nc1cc2c3c(c1)C(C)C(=O)N3CCC2 (stereo not given) | > 43.1 µg/mL |
| O=C(O)CC(C(=O)Nc1ccc(Cl)cc1)N1CCCCCC1 (stereo not given) | > 48.7 µg/mL |
| Cc1c(Cl)ccc2c(C(N)=O)cc(-c3ccccn3)nc12 | 0.2 µg/mL (≈ 0.672 µM) |
| Cc1cc(=O)n2c3ccccc3n(CC(O)CN3CCOCC3)c2c1C#N (stereo not given) | > 55 µg/mL |
| CSc1cccc(NC(N)=S)c1 | 29.2 µg/mL (≈ 147 µM) |
| O=C(O)C1C2CCC(C2)C1C(=O)Nc1ccccc1 (stereo not given) | 38.8 µg/mL (≈ 150 µM) |
| O=C(Cc1ccccc1)NCC(=O)N1CCCCC1 | > 39.1 µg/mL |
| COc1ccc(-c2cc(C(=O)NCc3ccco3)c3ccccc3n2)c(OC)c1 | 8.3 µg/mL (≈ 21.4 µM) |

| SMILES | solubility kinetic |
| --- | --- |
| O=C1CC(c2ccccc2)CC2=C1C=Nc1ccccc1N2 (stereo not given) | 37 µg/mL (≈ 128 µM) |
| CC(=O)c1cccc(NC(=O)C(NC(C)C)c2ccccc2)c1 (stereo not given) | > 46.6 µg/mL |
| O=C1CSC(c2cccnc2)N1c1ccc(Cl)cc1 (stereo not given) | > 43.6 µg/mL |
| O=C(O)CCC(=O)N1CCN(Cc2ccc3c(c2)OCO3)CC1 | 28.1 µg/mL (≈ 87.7 µM) |
| CC1(C)CCN2CCC(C)(C)c3c(O)ccc1c32.CS(=O)(=O)O | 19.6 µg/mL |
| O=Nc1c(O)n(Cc2ccccc2)c2ccccc12 | > 37.8 µg/mL |
| COc1ccc(NC(=O)CC2C(=O)NCCN2C(=O)c2ccccc2)cc1 (stereo not given) | > 55.1 µg/mL |
| Fc1ccccc1NC(=S)NCc1ccccc1 | 36.1 µg/mL (≈ 139 µM) |
| NS(=O)(=O)c1ccc(CCNC(=O)c2ccc(Cl)c(S(=O)(=O)N3CCCCC3)c2)cc1 | 12.1 µg/mL (≈ 24.9 µM) |
| O=C(CNC(=O)c1ccccc1F)NCc1ccccn1 | > 43.1 µg/mL |
| CCOc1ccc(CCNC(=O)Nc2ccccc2C)cc1OCC | 3.2 µg/mL (≈ 9.34 µM) |
| O=C(O)c1ccc(S(=O)(=O)N(Cc2cccs2)CC2CCCO2)cc1 (stereo not given) | > 57.2 µg/mL |
| CC(CC(=O)O)C(=O)c1ccc(Cl)c([N+](=O)[O-])c1 (stereo not given) | > 40.7 µg/mL |
| CCOc1ccc(Oc2ccc(Cl)cc2N)cc1.Cl | 4.5 µg/mL |
| O=[N+]([O-])c1ccc(O)c2ncccc12 | > 28.5 µg/mL |
| COc1cc(/C=N/c2oc(C)c(C)c2C#N)cc(Br)c1O | 8 µg/mL (≈ 22.9 µM) |
| Cn1c(Cc2ccccc2)nnc1SCC(=O)NC1CCCC1 | > 49.6 µg/mL |
| O=S(=O)(NC1CCCCC1)c1ccc(N2CCOCC2)nc1 | > 48.8 µg/mL |
| COc1ccc(/C=N/NC(=O)c2cc[n+]([O-])cc2)cc1OC | > 45.2 µg/mL |
| CCC(=O)NC(c1ccc(C)cc1)c1ccc2cccnc2c1O (stereo not given) | 1.6 µg/mL (≈ 4.99 µM) |
| CC1(C)CNc2cc(N)ccc2S1 | 26.3 µg/mL (≈ 135 µM) |
| CN(C)CCCN=Cc1c(O)n(Cc2ccco2)c(=O)[nH]c1=O | 36.4 µg/mL (≈ 114 µM) |
| N#Cc1ccc(CC(C(=O)O)N2Cc3ccccc3C2=O)cc1 (stereo not given) | > 45.9 µg/mL |
| O=C1CN(C(=O)COC(=O)CCC(=O)c2ccc(Cl)cc2)c2ccccc2N1 | 57.2 µg/mL (≈ 143 µM) |
